Measured values published in patent publication US10597388B2, “Pyridazinone herbicides” (FMC CORPORATION, priority 2014, dated 2020).

Columns and labels:
Assay in all cases: Test D controlled growth environment herbicide test, pre- and postemergence
Type in all cases: in vivo
[1] = test system: deadnettle (henbit deadnettle, Lamium amplexicaule)
Summary of the method: (§1)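 Pre-emergence: seeds sown in silt loam soil were sprayed with compound in a non-phytotoxic solvent mix containing surfactant. Post-emergence: plants at 2 to 18 cm (1- to 4-leaf stage) in peat moss/vermiculite medium got the same formulation. Visual 0–100 rating versus controls after 14 to 21 d.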

[2] = test system: wheat, spring (spring wheat, Triticum aestivum)
Summary of the method: as §1

[3] = test system: radish, wild (wild radish, Raphanus raphanistrum)
Summary of the method: as §1

[4] = test system: windgrass (Apera spica-venti)
Summary of the method: as §1

[5] = test system: barley, spring (spring barley, Hordeum vulgare)
Summary of the method: as §1

[6] = test system: Russian thistle (Salsola kali)
Summary of the method: as §1

[7] = test system: speedwell (bird's-eye speedwell, Veronica persica)
Summary of the method: as §1

[8] = test system: ryegrass, Italian (Italian ryegrass, Lolium multiflorum)
Summary of the method: as §1

[9] = test system: canarygrass (Phalaris minor)
Summary of the method: as §1

[10] = test system: oat, wild (wild oat, Avena fatua)
Summary of the method: as §1

[11] = test system: oilseed rape (Brassica napus)
Summary of the method: as §1

[12] = test system: buckwheat, wild (wild buckwheat, Polygonum convolvulus)
Summary of the method: as §1

[13] = test system: field poppy (Papaver rhoeas)
Summary of the method: as §1

[14] = Postemergence, 31 g ai/ha, scale 0 to 100 (0 no effect, 100 complete control)
[15] = Postemergence, 125 g ai/ha, visual rating on scale 0 (no effect) to 100 (complete control), 14 to 21 d
[16] = Postemergence, 250 g ai/ha, scale 0 to 100 (0 no effect, 100 complete control)
[17] = Preemergence, 125 g ai/ha, scale 0 to 100 (0 no effect, 100 complete control)
[18] = Preemergence, 250 g ai/ha, scale 0 to 100, 0 no effect, 100 complete control
[19] = postemergence, 62 g ai/ha, scale 0 to 100, 0 no effect, 100 complete control
[20] = Preemergence, 62 g ai/ha, scale 0 to 100 (0 no effect, 100 complete control)

CCCC(=O)Oc1c(C)nn(C)c(=O)c1-c1c(C)sc2ccc(C)cc12 [Compound 105]
Deadnettle plant response rating [1, 14]: 10 | Plant response rating, Deadnettle [1, 15]: 20 | Plant response rating, Deadnettle [1, 16]: 30 | Plant response rating (scale of 0 to 100), Deadnettle ([1]; Preemergence, 62 g ai/ha): 10 | Plant response rating, Deadnettle [1, 17]: 15 | Plant response rating, Deadnettle [1, 18]: 65 | Plant response rating, Deadnettle [1, 19]: 10 | Wheat, Spring plant response rating [2, 14]: 0 | Plant response rating, Wheat, Spring [2, 15]: 20 | Plant response rating, Wheat, Spring [2, 16]: 25 | Plant response rating (scale of 0 to 100), Wheat, Spring ([2]; Preemergence, 31 g ai/ha): 0 | Plant response rating (scale of 0 to 100), Wheat, Spring ([2]; Preemergence, 62 g ai/ha): 0 | Plant response rating, Wheat, Spring [2, 17]: 0 | Plant response rating, Wheat, Spring [2, 18]: 40 | Plant response rating, Wheat, Spring [2, 19]: 10 | Radish, Wild plant response rating [3, 14]: 5 | Plant response rating, Radish, Wild [3, 15]: 20 | Plant response rating, Radish, Wild [3, 16]: 70 | Plant response rating (scale of 0 to 100), Radish, Wild ([3]; Preemergence, 62 g ai/ha): 15 | Plant response rating, Radish, Wild [3, 17]: 35 | Plant response rating, Radish, Wild [3, 18]: 55 | Plant response rating, Radish, Wild [3, 19]: 15 | Windgrass plant response rating [4, 14]: 60 | Plant response rating, Windgrass [4, 15]: 80 | Plant response rating, Windgrass [4, 16]: 85 | Plant response rating (scale of 0 to 100), Windgrass ([4]; Preemergence, 31 g ai/ha): 75 | Plant response rating (scale of 0 to 100), Windgrass ([4]; Preemergence, 62 g ai/ha): 80 | Plant response rating, Windgrass [4, 17]: 80 | Plant response rating, Windgrass [4, 18]: 95 | Plant response rating, Windgrass [4, 19]: 70 | Barley, Spring plant response rating [5, 14]: 0 | Plant response rating, Barley, Spring [5, 15]: 10 | Plant response rating, Barley, Spring [5, 16]: 15 | Plant response rating (scale of 0 to 100), Barley, Spring ([5]; Preemergence, 31 g ai/ha): 0 | Plant response rating, Barley, Spring [5, 20]: 0 | Plant response rating, Barley, Spring [5, 17]: 0 | Plant response rating, Barley, Spring [5, 18]: 20 | Plant response rating, Barley, Spring [5, 19]: 5 | Russian Thistle plant response rating [6, 14]: 40 | Plant response rating, Russian Thistle [6, 15]: 50 | Plant response rating, Russian Thistle [6, 16]: 50 | Plant response rating (scale of 0 to 100), Russian Thistle ([6]; Preemergence, 31 g ai/ha): 0 | Plant response rating (scale of 0 to 100), Russian Thistle ([6]; Preemergence, 62 g ai/ha): 60 | Plant response rating, Russian Thistle [6, 17]: 70 | Plant response rating, Russian Thistle [6, 18]: 90 | Plant response rating, Russian Thistle [6, 19]: 45 | Speedwell plant response rating [7, 14]: 45 | Plant response rating, Speedwell [7, 15]: 65 | Plant response rating, Speedwell [7, 16]: 75 | Plant response rating, Speedwell [7, 19]: 50 | Ryegrass, Italian plant response rating [8, 14]: 75 | Plant response rating, Ryegrass, Italian [8, 15]: 90 | Plant response rating, Ryegrass, Italian [8, 16]: 95 | Plant response rating (scale of 0 to 100), Ryegrass, Italian ([8]; Preemergence, 31 g ai/ha): 85 | Plant response rating (scale of 0 to 100), Ryegrass, Italian ([8]; Preemergence, 62 g ai/ha): 90 | Plant response rating, Ryegrass, Italian [8, 17]: 95 | Plant response rating, Ryegrass, Italian [8, 18]: 98 | Plant response rating, Ryegrass, Italian [8, 19]: 85 | Canarygrass plant response rating [9, 14]: 40 | Plant response rating, Canarygrass [9, 15]: 75 | Plant response rating, Canarygrass [9, 16]: 80 | Plant response rating (scale of 0 to 100), Canarygrass ([9]; Preemergence, 31 g ai/ha): 85 | Plant response rating (scale of 0 to 100), Canarygrass ([9]; Preemergence, 62 g ai/ha): 95 | Plant response rating, Canarygrass [9, 17]: 95 | Plant response rating, Canarygrass [9, 18]: 98 | Plant response rating, Canarygrass [9, 19]: 50 | Oat, Wild plant response rating [10, 14]: 80 | Plant response rating, Oat, Wild [10, 15]: 95 | Plant response rating, Oat, Wild [10, 16]: 100 | Plant response rating (scale of 0 to 100), Oat, Wild ([10]; Preemergence, 31 g ai/ha): 80 | Plant response rating (scale of 0 to 100), Oat, Wild ([10]; Preemergence, 62 g ai/ha): 80 | Plant response rating, Oat, Wild [10, 17]: 85 | Plant response rating, Oat, Wild [10, 18]: 100 | Plant response rating, Oat, Wild [10, 19]: 85 | Oilseed Rape plant response rating [11, 14]: 0 | Plant response rating, Oilseed Rape [11, 15]: 25 | Plant response rating, Oilseed Rape [11, 16]: 60 | Plant response rating (scale of 0 to 100), Oilseed Rape ([11]; Preemergence, 31 g ai/ha): 55 | Plant response rating (scale of 0 to 100), Oilseed Rape ([11]; Preemergence, 62 g ai/ha): 60 | Plant response rating, Oilseed Rape [11, 17]: 50 | Plant response rating, Oilseed Rape [11, 18]: 50 | Plant response rating, Oilseed Rape [11, 19]: 15 | Buckwheat, Wild plant response rating [12, 14]: 65 | Plant response rating, Buckwheat, Wild [12, 15]: 100 | Plant response rating, Buckwheat, Wild [12, 16]: 100 | Plant response rating (scale of 0 to 100), Buckwheat, Wild ([12]; Preemergence, 31 g ai/ha): 15 | Plant response rating, Buckwheat, Wild [12, 20]: 5 | Plant response rating, Buckwheat, Wild [12, 17]: 5 | Plant response rating, Buckwheat, Wild [12, 18]: 25 | Plant response rating, Buckwheat, Wild [12, 19]: 95 | Field Poppy plant response rating [13, 14]: 70 | Plant response rating, Field Poppy [13, 15]: 80 | Plant response rating, Field Poppy [13, 16]: 80 | Plant response rating (scale of 0 to 100), Field Poppy ([13]; Preemergence, 31 g ai/ha): 100 | Plant response rating (scale of 0 to 100), Field Poppy ([13]; Preemergence, 62 g ai/ha): 100 | Plant response rating, Field Poppy [13, 17]: 100 | Plant response rating, Field Poppy [13, 18]: 100 | Plant response rating, Field Poppy [13, 19]: 75
